{"source": "ChEMBL document CHEMBL4145509", "about": "“Unravelling the binding mechanism of benproperine with human serum albumin: A docking, fluorometric, and thermodynamic approach” (Eur J Med Chem, 2018)", "key": {"Albumin [1]": {"target": "T1, Albumin (Homo sapiens, UniProt P02768)", "T1 sequence (P02768 whole entry)": "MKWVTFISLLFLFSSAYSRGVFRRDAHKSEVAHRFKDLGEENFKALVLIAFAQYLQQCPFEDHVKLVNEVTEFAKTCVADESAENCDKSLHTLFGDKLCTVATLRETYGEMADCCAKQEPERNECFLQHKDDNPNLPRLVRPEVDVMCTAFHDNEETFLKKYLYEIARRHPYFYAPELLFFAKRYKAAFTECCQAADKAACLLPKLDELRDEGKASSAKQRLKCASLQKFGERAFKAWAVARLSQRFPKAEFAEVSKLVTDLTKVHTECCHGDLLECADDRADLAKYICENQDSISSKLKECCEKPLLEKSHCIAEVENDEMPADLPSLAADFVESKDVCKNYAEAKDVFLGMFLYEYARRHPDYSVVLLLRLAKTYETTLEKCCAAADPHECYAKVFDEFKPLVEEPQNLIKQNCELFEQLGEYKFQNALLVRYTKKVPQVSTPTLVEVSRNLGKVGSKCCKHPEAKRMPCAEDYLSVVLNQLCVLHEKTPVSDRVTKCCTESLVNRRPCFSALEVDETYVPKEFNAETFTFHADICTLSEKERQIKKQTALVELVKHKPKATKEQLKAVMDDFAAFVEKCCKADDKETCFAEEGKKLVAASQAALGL", "assay": "Induction of conformational changes in human serum albumin assessed as reduction in alpha-helical content at HSA:compound ratio of 1:2 by CD spectral analysis (reference value: 52.6%)", "parameters": "scale not given: the % may be the effect or the level left"}, "Albumin [2]": {"target": "T1, Albumin", "assay": "Binding affinity to human serum albumin assessed as fluorescence lifetime decay 3 at HSA:compound ratio of 1:2 after 1 hr by fluorescence spectroscopic analysis (reference value: 6.876 +/- 0.177 nanoseconds)", "format": "ADME", "conditions": "isolated protein"}, "Albumin [3]": {"target": "T1, Albumin", "assay": "Induction of conformational changes in human serum albumin assessed as reduction in alpha-helical content at HSA:compound ratio of 1:10 by CD spectral analysis (reference value: 52.6%)", "parameters": "scale not given: the % may be the effect or the level left"}, "Albumin [4]": {"target": "T1, Albumin", "assay": "Binding affinity to human serum albumin assessed as fluorescence lifetime decay 1 at HSA:compound ratio of 1:2 after 1 hr by fluorescence spectroscopic analysis (reference value: 3.917 +/- 0.039 nanoseconds)", "format": "ADME", "conditions": "isolated protein"}, "Albumin [5]": {"target": "T1, Albumin", "assay": "Binding affinity to human serum albumin assessed as fluorescence lifetime decay 3 at HSA:compound ratio of 1:10 after 1 hr by fluorescence spectroscopic analysis (reference value: 6.876 +/- 0.177 nanoseconds)", "format": "ADME", "conditions": "isolated protein"}, "Albumin [6]": {"target": "T1, Albumin", "assay": "Binding affinity to human serum albumin assessed as fluorescence lifetime decay 1 at HSA:compound ratio of 1:10 after 1 hr by fluorescence spectroscopic analysis (reference value: 3.917 +/- 0.039 nanoseconds)", "format": "ADME", "conditions": "isolated protein"}, "Albumin [7]": {"target": "T1, Albumin", "assay": "Binding affinity to human serum albumin assessed as binding constant after 1 hr at 37 degC by fluorescence spectroscopic analysis", "format": "ADME", "conditions": "isolated protein"}, "Albumin [8]": {"target": "T1, Albumin", "assay": "Binding affinity to human serum albumin assessed as Stern-Volmer quenching constant after 1 hr at 37 degC by fluorescence spectroscopic analysis", "format": "ADME", "conditions": "isolated protein"}, "Albumin [9]": {"target": "T1, Albumin", "assay": "Binding affinity to human serum albumin by isothermal titration microcalorimetry", "format": "ADME", "conditions": "isolated protein"}, "Albumin [10]": {"target": "T1, Albumin", "assay": "Binding affinity to human serum albumin assessed as Stern-Volmer quenching constant after 1 hr at 25 degC by fluorescence spectroscopic analysis", "format": "ADME", "conditions": "isolated protein"}, "Albumin [11]": {"target": "T1, Albumin", "assay": "Binding affinity to human serum albumin assessed as binding constant after 1 hr at 25 degC by fluorescence spectroscopic analysis", "format": "ADME", "conditions": "isolated protein"}, "Albumin [12]": {"target": "T1, Albumin", "assay": "Binding affinity to human serum albumin assessed as fluorescence lifetime decay 2 at HSA:compound ratio of 1:2 after 1 hr by fluorescence spectroscopic analysis (reference value: 0.584 +/- 0.047 nanoseconds)", "format": "ADME", "conditions": "isolated protein"}, "Albumin [13]": {"target": "T1, Albumin", "assay": "Binding affinity to human serum albumin assessed as fluorescence lifetime decay 2 at HSA:compound ratio of 1:10 after 1 hr by fluorescence spectroscopic analysis (reference value: 0.584 +/- 0.047 nanoseconds)", "format": "ADME", "conditions": "isolated protein"}}}
{"smiles": "CC(COc1ccccc1Cc1ccccc1)N1CCCCC1", "note": "(stereo not drawn) [BENPROPERINE]", "values": [{"measurement": "Activity", "setting": "Albumin [1]", "value": 49.06, "unit": "%"}, {"measurement": "Time", "setting": "Albumin [2]", "value": 6.858, "unit": "nanoseconds"}, {"measurement": "Activity", "setting": "Albumin [3]", "value": 47.88, "unit": "%"}, {"measurement": "Time", "setting": "Albumin [4]", "value": 3.852, "unit": "nanoseconds"}, {"measurement": "Time", "setting": "Albumin [5]", "value": 6.84, "unit": "nanoseconds"}, {"measurement": "Time", "setting": "Albumin [6]", "value": 3.699, "unit": "nanoseconds"}, {"measurement": "K", "setting": "Albumin [7]", "value": 1.1, "unit": "×10⁴ L/mol"}, {"measurement": "KSV", "setting": "Albumin [8]", "value": 1.99, "unit": "×10⁴ L/mol"}, {"measurement": "K", "setting": "Albumin [9]", "value": 1.97, "unit": "×10⁴ L/mol"}, {"measurement": "KSV", "setting": "Albumin [10]", "value": 2.74, "unit": "×10⁴ L/mol"}, {"measurement": "K", "setting": "Albumin [11]", "value": 2.01, "unit": "×10⁴ L/mol"}, {"measurement": "Time", "setting": "Albumin [12]", "value": 0.515, "unit": "nanoseconds"}, {"measurement": "Time", "setting": "Albumin [13]", "value": 0.488, "unit": "nanoseconds"}]}
